From PMC3344887 (PLoS ONE, 2012)
Values joined by “and” are separate entries in the source; they are usually repeats but may differ in a detail not shown here. Equal values may be shown once. Read-outs that look alike come from different tables or passages of the source.

Tests used:
[1] = tested on: healthy subjects; assay: Physiologic measures (blood pressure, heart rate, body temperature), clinical study; format: in vivo, humans; settings: peak change from baseline, mean±SEM, 16 subjects
Protocol: (§1) The washout periods between the sessions were at least 10 days long.
(§2) Identical placebo (lactose) capsules were prepared. […] Drugs were administered without food.
(§3) Physiologic measures were assessed repeatedly 4, 3, 2, and 1 h before and 0, 0.33, 0.66, 1, 1.5, 2, 2.5, 3, 4, 5, and 6 h after MDMA or placebo administration. Heart rate, systolic blood pressure, and diastolic blood pressure were measured using an OMRON M7 blood pressure monitor (OMRON Healthcare Europe, Hoofddorp, The Netherlands). Measures were taken twice per time point with an interval of 1 min, and the average was used for the analysis. Core (tympanic) temperature was assessed using a GENIUS 2 ear thermometer (Tyco Healthcare Group, Watertown, NY). […] Adverse effects were assessed using the List of Complaints (LC), which consists of 66 items that yield a total adverse effects score and reliably measure physical and general discomfort.
(§4) Clinical data values were transformed to differences from baseline. Peak effects (Emax) were determined for repeated measures. Emax values were compared using General Linear Models repeated-measures analysis of variance, with drug as within-subject factor, using Statistica 6.0 software (StatSoft, Tulsa, OK). Tukey post hoc comparisons were performed based on significant main effects of treatment. Additional analyses of variance were performed, with period as factor to exclude period effects. Correlation analyses were performed using Pearson’s correlations. The criterion for significance was p<0.05. Mean arterial pressure (MAP) was calculated from diastolic blood pressure and systolic blood pressure using the following formula: MAP = DBP+(SBP - DBP)/3.

[2] = tested on: healthy subjects; assay: Adverse effects, List of Complaints, clinical study
Protocol: as §1, §2, §3

[3] = tested on: healthy subjects; assay: Visual Analog Scales, subjective drug effects, clinical study; format: in vivo, humans; settings: peak change from baseline, mean±SEM, 16 subjects
Protocol: as §1, §2
(§5) The psychometric measures included Visual Analog Scales (VAS), [10], the Adjective Mood Rating Scale (AMRS), and 5-Dimensions of Altered States of Consciousness (5D-ASC), [23]. […] The VASs were presented as 100 mm horizontal lines marked “not at all" on the left and “extremely" on the right. The VASs for “closeness to others," “open," and “talkative" were bidirectional (±50 mm). The VASs were administered 4 h before and 0, 0.33, 1, 1.5, 2, 2.5, 3, 3.5, 4, and 5 h after MDMA or placebo administration. […] The AMRS contains subscales for activity, extroversion and introversion, well-being, emotional excitation, anxiety-depression, and dreaminess. The 5D-ASC rating scale measures alterations in mood, perception, experience of self in relation to the environment, and thought disorder. The 5D-ASC rating scale comprises five subscales or dimensions and 11 lower-order scales. The 5D-ASC dimension “oceanic boundlessness" (OB, 27 items) measures derealization and depersonalization associated with positive emotional states, ranging from heightened mood to euphoric exaltation. […] The global ASC score was determined by adding the OB, AED, and VR scores. The 5D-ASC scale was administered 4 h after MDMA or placebo administration.
as §4

[4] = tested on: NE transporter; settings: cited from earlier work
[5] = cited from earlier work; for Mean plasma Cmax: healthy volunteers
[6] = tested on: patients; settings: 60-120 mg/day; cited from earlier work
[7] = tested on: healthy subjects; assay: 5-Dimensions of Altered States of Consciousness (5D-ASC), clinical study; format: in vivo, humans; settings: p<0.001
Protocol: as §1, §2, §5

[8] = tested on: DAT; settings: cited from earlier work
[9] = tested on: healthy subjects; assay: Circulating plasma catecholamines, clinical study; format: in vivo, humans; settings: peak change from baseline, mean±SEM, 16 subjects
Protocol: as §1, §2
(§6) Plasma concentrations of copeptin were also determined in this study as reported elsewhere. […] No hydrolysis was performed. Thus, the values for HMMA represent the drug concentrations of the non-conjugated metabolite. All blood samples were collected on ice and centrifuged within 10 min at 4°C. The plasma was then stored at –20°C until the analysis.

[10] = tested on: healthy subjects; assay: Adjective Mood Rating Scale (AMRS), clinical study; format: in vivo, humans; settings: peak change from baseline, mean±SEM, 16 subjects
Protocol: as §1, §2, §5, §4

[11] = clinical; settings: human, in vivo
Protocol: as §2, §6
Cmax and tmax were obtained directly from the observed concentration-time curves. […] Terminal elimination half-life (t 1/2) was calculated using λz and the equation t1/2 = ln2/λz. The area under the plasma concentration-time curve up to 6 h (AUC0-6h) was calculated using the linear trapezoidal rule. The AUC0–∞ was determined by extrapolation of AUC0–6h using λz. The PK parameters were determined using the PK functions for Excel (Microsoft, Redmont, CA, USA). Plasma concentrations were only determined up to 6 h after MDMA administration because the aim of the study was to assess potential changes in MDMA plasma levels while relevant pharmacodynamic effects or MDMA were present.

[12] = biological target: SERT (Homo sapiens, UniProt P31645)
From the text: The procedures were adapted from previous studies, [3]. […] This transports the cells through the silicon oil layer to the KOH layer, thereby separating the cells from the buffer, which remains on top of the silicon oil layer. The centrifuge tubes were then transferred to liquid nitrogen. The amount of tracer that remained in the cells was quantified by cutting the frozen centrifuge tube above the KOH/oil interface and putting the tip of the tube with the cell pellet in a scintillation vial that contained 500 µl lysis buffer (0.05 M TRIS-HCl, 50 mM NaCl, 5 mM EDTA, and 1% Nonidet P-40 substitute in water). The samples were then shaken for 1 h on a rotary shaker, and 7 ml of scintillation fluid (Ultimagold, Perkin Elmer, Schwerzenbach, Switzerland) was added. Cell-associated radioactivity was then counted. […] Dose-response curves were generated using 9–11 concentrations of MDMA/MDA. […] All data points were derived from at least three independent experiments, each assayed in triplicate. The data were fit by non-linear regression, and EC50 and Emax values were calculated using Prism (GraphPad, San Diego, CA).

[13] = biological target: NE transporter; settings: read-out: Ki, NE transporter; rat cortex synaptosomes; cited from earlier work

Chain of SERT (P31645 whole entry): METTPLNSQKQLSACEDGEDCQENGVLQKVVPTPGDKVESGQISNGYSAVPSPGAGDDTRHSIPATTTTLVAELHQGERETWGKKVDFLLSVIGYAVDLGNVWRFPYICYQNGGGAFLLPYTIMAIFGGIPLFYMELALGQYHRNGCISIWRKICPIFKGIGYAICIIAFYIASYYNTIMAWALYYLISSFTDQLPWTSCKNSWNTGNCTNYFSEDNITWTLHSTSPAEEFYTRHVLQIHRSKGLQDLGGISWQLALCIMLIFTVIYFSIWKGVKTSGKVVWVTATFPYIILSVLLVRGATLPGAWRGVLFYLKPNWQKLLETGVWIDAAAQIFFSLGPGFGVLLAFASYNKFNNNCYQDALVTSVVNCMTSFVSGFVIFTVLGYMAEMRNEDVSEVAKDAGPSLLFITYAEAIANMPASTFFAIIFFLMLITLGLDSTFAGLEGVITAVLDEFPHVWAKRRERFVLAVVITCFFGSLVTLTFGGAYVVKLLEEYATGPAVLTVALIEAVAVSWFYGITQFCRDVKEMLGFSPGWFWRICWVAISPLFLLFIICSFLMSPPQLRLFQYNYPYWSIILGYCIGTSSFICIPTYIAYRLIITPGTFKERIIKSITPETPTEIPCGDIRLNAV

## CNCC[C@H](Oc1cccc2ccccc12)c1cccs1 [Duloxetine]
[1]; diastolic blood pressure
  DPB, Emax: 6.00±0.97 mm Hg
[1]; mean arterial pressure
  MAP, Emax: 5.11±1.01 mm Hg
[1]
  Heart rate, Emax: 5.06±1.27 beats/min
[1]; systolic blood pressure
  SBP, Emax: 6.19±1.42 mm Hg
[1]; tympanic
  Body temperature, Emax: 0.19±0.04 °C
[2]; at 3 h, change from baseline, mean±SEM, 16 subjects
  List of Complaints (total score), Acute adverse effects: −1.81±1.09
[2]; at 24 h, change from baseline, mean±SEM, 16 subjects
  List of Complaints (total score), Sub-acute adverse effects: −2.88±1.35
[2]; clinical study
  Adverse effects produced: daytime somnolence and moderate insomnia
[3]
  VAS Any drug effect, Emax: 6.00±2.52
  VAS Closeness, Emax: 0.00±0.00
  VAS Drug high, Emax: 4.81±2.93
  VAS Drug liking, Emax: 7.56±4.43
  VAS Good drug effect, Emax: 8.75±5.01
  VAS Open, Emax: 0.38±0.38
  VAS Stimulated, Emax: 5.13±2.45
  VAS Talkative, Emax: 0.31±0.31
[4]; 60 mg for 14 days
  Block of thyramine-induced increases in systolic blood pressure: not able to block
[4]; dose of 80-120 mg
  Suppression of blood pressure increase due to thyramine: effective in suppressing
[5]; 40 mg once daily
  Mean Cmax at steady state: 35 ng/mL
  Trough level at 24h at steady state: approximately 10 ng/mL
[5]; after pretreatment with paroxetine
  Increase of AUC: 1.6 fold
[5]
  Elimination half-life: 12 h
  Tmax: 6 h
[5]; daily 60 mg
  Mean Cmax, population PK: 30 to 60 ng/mL
  Mean trough level at 24h, population PK: ~25 ng/mL
[5]; patients, daily 120 mg
  Peak level at steady state: 100 ng/mL
  Trough level at steady state: 50 ng/mL
[5]; single oral dose 30 mg
  Mean plasma Cmax: 22 ng/mL
[5]; single oral dose 60 mg
  Mean plasma Cmax: 44 ng/mL
[5]; single oral dose 90 mg
  Mean plasma Cmax: 61 ng/mL
[6]
  Incidence of constipation: 11%
  Incidence of decreased appetite: 8%
  Incidence of dizziness: 9-11%
  Incidence of dry mouth: 15-18%
  Incidence of fatigue: 14%
  Incidence of headache: 20%
  Incidence of insomnia: 11-15%
  Incidence of nausea: 20-29%
  Incidence of sweating: 6%
[7]
  Effect on MDMA's effects on the total ASC score: robustly reduced
[8]
  Lower potency at DAT compared with SERT and NET: 10- to 100 fold
[9]
  Circulating Epinephrine, Emax: 0.46 ± 0.10 nM
  Circulating Norepinephrine, Emax: -0.18 ± 0.07 nM
[10]
  AMRS Activity, Emin: −2.69±0.69
  AMRS Dreaminess, Emax: 1.35±0.35
  AMRS Emotional excitation, Emax: 0.69±0.27
  AMRS Extroversion, Emax: 0.38±0.16
  AMRS Introversion, Emax: 1.13±0.30
  AMRS Well-being, Emax: 0.38±0.16
[11]
  Cmax: 112 ± 7.06 ng/mL
  concentration at 120 min: 314 ± 2.5 nM
[11]; 120 mg
  Cmax: 107 ± 10.2 ng/mL
[11]; AUC0-6
  AUC(0-t): 800 ± 74.4 ng·h/mL
[11]; AUC(0-∞)
  AUC(0-inf): 1960 ± 230 ng·h/mL
[11]; Plasma concentration Cmax, text of b61
  Cmax: 112 ng/mL and 380 nM
[11]; T1/2
  half-life: 11 ± 1.04 h
[11]; Tmax
  Tmax: 5.14 ± 0.29 h
[12]
  Effect on MDMA- and MDA-induced 5-HT release: completely blocked
[13]
  Ki: 2.1 nM
